Tests used:
Type in all cases: biochemical
complement protein D = complement protein D (Homo sapiens, UniProt P00746); assay: Inactivation rate of complement protein D; details: Table II; pH 7.5, 25° C; [I] 0.05 to 1.29 mM
Experimental: (§1) Inactivation rates of serine proteases by substituted isocoumarins were measured by the incubation method. An aliquot of inhibitor (25 or 50 μl) in Me2 SO was added to a buffered enzyme solution (0.01-2.3 μM) to initiate the inactivation. Aliquots (50 μl) were withdrawn at various intervals and the residual enzymatic activity was measured. Me2 SO concentration in the reaction mixture was 8-12% (v/v). 0.1 Hepes, 0.01M CaCl2, pH 7.5 buffer was utilized for trypsin and coagulation enzymes. 0.1M Hepes, 0.5M NaCl, pH 7.5 was utilized for other serine proteases. The inhibitor concentrations are shown in all the tables. Peptide thioesters or peptide nitroanilides with appropriate sequence were used as substrates for various serine proteases. All peptide thioester hydrolysis rates were measured with assay mixtures containing 4,4'-dithiodipyridine (ε324 =19800M^-1 cm^-1; Grasetti & Murray, Arch. Biochem. Biophys. 119, pp 41-49 (1967)). Peptide 4-nitroanilide nitroanilide hydrolysis was measured at 410 nm (ε410 =8800M^-1 cm^-1; Erlanger et al., Arch. Biochem. Biophys. 95, pp 271-278 (1961)). First order inactivation rate constant (kobs) were obtained from plots of ln (vt /vo) vs time, and the correlation coefficients were greater than 0.98.
(§2) ^a Conditions were 0.1M Hepes, 0.5M NaCl, pH 7.5, 8-10% Me2 SO
(§3) and 25° C. Inactivation rates were measured by incubation method.
(§4) Enzyme concentrations were as follows: protein D, 1-9 μM; C2, 0.7-1
(§5) μM; B, 1.8 μM; Bb, 0.3-0.8 μM; Cl^- s, 0.07 μM; Cl^-

[1] = biological target: sheep lung lymph tryptase; assay: Inactivation rate of sheep lung lymph tryptase; details: Table III; 0.1M Hepes, 0.5M NaCl, pH 7.0, 25° C
Experimental: Inactivation rates of serine proteases by substituted isocoumarins were measured by the incubation method. An aliquot of inhibitor (25 or 50 μl) in Me2 SO was added to a buffered enzyme solution (0.01-2.3 μM) to initiate the inactivation. Aliquots (50 μl) were withdrawn at various intervals and the residual enzymatic activity was measured. […] 0.1 Hepes, 0.01M CaCl2, pH 7.5 buffer was utilized for trypsin and coagulation enzymes. […] The inhibitor concentrations are shown in all the tables. Peptide thioesters or peptide nitroanilides with appropriate sequence were used as substrates for various serine proteases.
(§6) ^a Inactivation rates were measured at 0.1M Hepes, 0.5M NaCl, pH 7.5
(§7) buffer, 8% Me2 SO and 25° C.

complement protein C2 = biological target: T1, complement protein C2 (Homo sapiens, UniProt P06681); assay: Inactivation rate of complement protein C2
T1 sequence (P06681 21-752): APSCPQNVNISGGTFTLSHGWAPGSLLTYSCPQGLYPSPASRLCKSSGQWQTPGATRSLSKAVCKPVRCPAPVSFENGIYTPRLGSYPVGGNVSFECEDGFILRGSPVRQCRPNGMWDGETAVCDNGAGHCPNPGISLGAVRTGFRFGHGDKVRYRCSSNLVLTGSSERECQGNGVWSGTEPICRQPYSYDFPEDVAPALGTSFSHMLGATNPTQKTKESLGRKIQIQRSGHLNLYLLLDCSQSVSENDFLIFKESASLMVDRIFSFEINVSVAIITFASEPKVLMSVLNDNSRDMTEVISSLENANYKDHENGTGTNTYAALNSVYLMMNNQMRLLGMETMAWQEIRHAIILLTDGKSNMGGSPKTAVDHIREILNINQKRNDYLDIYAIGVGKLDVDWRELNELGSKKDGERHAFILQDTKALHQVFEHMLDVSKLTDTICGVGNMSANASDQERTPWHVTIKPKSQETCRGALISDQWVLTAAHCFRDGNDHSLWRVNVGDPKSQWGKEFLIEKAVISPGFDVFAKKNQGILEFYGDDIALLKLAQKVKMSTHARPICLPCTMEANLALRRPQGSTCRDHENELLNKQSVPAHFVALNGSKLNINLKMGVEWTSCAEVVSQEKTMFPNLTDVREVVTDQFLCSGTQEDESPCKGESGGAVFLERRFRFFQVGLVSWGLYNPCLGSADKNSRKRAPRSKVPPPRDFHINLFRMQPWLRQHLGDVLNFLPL
Experimental: as §1, §2, §3, §4, §5

complement protein B = complement protein B (Homo sapiens, UniProt P00751); assay: Inactivation rate of complement protein B
Experimental: as §1, §2, §3, §4, §5

human factor XIIa = biological target: T2, human factor XIIa (Homo sapiens, UniProt P00748); assay: Inactivation rate of human factor XIIa; details: Table VIII; pH 7.5, 25° C; [I] 3.6-4.9 μM; read-out: kobs/[I]
T2 construct: human factor XIIa
T2 sequence (P00748 373-615 limits assumed): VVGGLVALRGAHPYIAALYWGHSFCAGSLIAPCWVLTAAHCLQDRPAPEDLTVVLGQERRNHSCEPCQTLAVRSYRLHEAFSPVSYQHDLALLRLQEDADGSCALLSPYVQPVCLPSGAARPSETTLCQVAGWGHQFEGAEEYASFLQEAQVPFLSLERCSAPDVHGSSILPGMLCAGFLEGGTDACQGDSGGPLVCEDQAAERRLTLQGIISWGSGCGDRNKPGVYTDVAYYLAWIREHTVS
T2 sequence (P00748 20-372 partner limits assumed): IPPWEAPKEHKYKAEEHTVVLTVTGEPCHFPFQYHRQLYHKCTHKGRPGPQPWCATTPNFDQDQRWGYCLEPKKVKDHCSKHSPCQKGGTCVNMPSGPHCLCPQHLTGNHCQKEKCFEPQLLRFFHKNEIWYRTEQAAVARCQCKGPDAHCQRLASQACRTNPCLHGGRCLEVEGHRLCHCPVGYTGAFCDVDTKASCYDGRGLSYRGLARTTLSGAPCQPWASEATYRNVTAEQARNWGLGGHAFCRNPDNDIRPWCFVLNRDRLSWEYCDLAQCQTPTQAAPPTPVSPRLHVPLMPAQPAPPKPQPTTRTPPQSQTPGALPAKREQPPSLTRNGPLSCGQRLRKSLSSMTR
Experimental: as §1
(§8) ^a Conditions were as 0.1M Hepes, 0.01M CaCl2, pH 7.5 and 8-12%
(§9) Me2 SO and 25° C. Rate constants were measured by incubation
(§10) method unless otherwise noted. An aliquot of inhibitor was added to an
(§11) enzyme solution and aliquots removed with time and assayed for remaining
(§12) enzymatic activity. Firstorder rate constants, kobs were obtained
(§13) from the plots of ln(vt /vo) versus time.
(§14) ^a Inhibition rates were measured in 0.1M Hepes, 0.01M CaCl2, pH
(§15) 7.5 buffer, 8% Me2 SO and at 25° C.

bovine thrombin = biological target: T3, bovine thrombin (Bos taurus, UniProt P00735); assay: Inactivation rate of bovine thrombin; details: Table VIII; pH 7.5, 25° C; [I] 1.2-54 μM; read-out: kobs/[I]
T3 construct: bovine thrombin
How it was run: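 Incubating enzyme with inhibitor in Ca2+-containing Hepes, pH 7.5, 8-12% Me2SO, 25° C, then sampling over time, gave residual activity measured spectrophotometrically with thioester or nitroanilide substrates; kobs was taken from ln(vt/vo) plots.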

human thrombin = biological target: T4, human thrombin (Homo sapiens, UniProt P00734); assay: Inactivation rate of human thrombin; details: Table VIII; pH 7.5, 25° C; [I] 1.2-54 μM; read-out: kobs/[I]
T4 construct: human thrombin
How it was run: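 Incubation method: enzyme (0.01-2.3 μM) mixed with inhibitor in 0.1M Hepes, 0.01M CaCl2, pH 7.5, 8% Me2SO, 25° C; residual activity sampled over time with peptide thioester or 4-nitroanilide substrates. kobs from ln(vt/vo) vs time plots.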

human skin tryptase = assay: Inhibition of human skin tryptase; details: Table IX; pH 7.5, 25° C; [I] 0.34-0.39 μM
Experimental: as §1, §14
(§16) 7.5 buffer for human plasmin; 25 mM Phosphate, 0.5M NaCl, 1 mM EDTA, pH
(§17) 7.5 buffer for rat skin tryptase and 0.1M Hepes, 0.5M NaCl, pH 7.5 for
(§18) human lung tryptase, human skin tryptase and rt-PA. All enzymes were
(§19) assayed with ZArg-SBzl (0.07 mM) in the presence of 4,4dithiodipyridine
(§20) (0.33 mM). Reaction mixtures contained 8% Me2 SO and assays were […]

human factor Xa = biological target: T5, human factor Xa (Homo sapiens, UniProt P00742); assay: Inactivation rate of human factor Xa; details: Table VIII; pH 7.5, 25° C; [I] 3.6-44 μM; read-out: kobs/[I]
T5 construct: human factor Xa
Experimental: as §1, §8, §9, §10, §11, §12, §13, §14, §15

human lung tryptase = assay: Inactivation rate of human lung tryptase; details: Table IX; pH 7.5, 25° C; [I] 0.42-0.47 μM
Experimental: as §1, §6, §7, §14, §16, §17, §18, §19, §20

[2] = biological target: recombinant human tissue plasminogen activator (Homo sapiens, UniProt P00750); assay: Inactivation rate of recombinant human tissue plasminogen activator; details: pH 7.5, Table IX; pH 7.5, 25° C; [I] 3.5-5.0 μM; read-out: kobs/[I]
Experimental: as §1
^a Inactivation constants were measured at 0.1M Hepes, 0.5M NaCl (or
as §14, §16, §17, §18, §19, §20

rat skin tryptase = biological target: T6, rat skin tryptase (Rattus norvegicus, UniProt P27435); assay: Inactivation rate of rat skin tryptase; details: pH 7.5, Table IX; pH 7.5, 25° C; [I] 0.42-0.51 μM; read-out: kobs/[I]
T6 construct: from tissue; host or cells: rat skin
Experimental: as §1
^b Inactivation rates were measured at 25 mM phosphate, 0.5M NaCl, 1
mM EDTA, pH 7.5 buffer, 9% Me2 SO and 25° C.
as §14, §16, §17, §18, §19, §20

Sequence of complement protein D (P00746 26-253): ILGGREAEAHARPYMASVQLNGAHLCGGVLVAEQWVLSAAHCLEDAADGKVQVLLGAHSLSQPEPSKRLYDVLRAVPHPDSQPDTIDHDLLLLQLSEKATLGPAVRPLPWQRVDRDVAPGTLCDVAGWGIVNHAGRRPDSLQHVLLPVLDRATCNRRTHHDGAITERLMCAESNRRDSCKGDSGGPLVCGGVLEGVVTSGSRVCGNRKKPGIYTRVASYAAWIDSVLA
Sequence of complement protein B (P00751 26-764): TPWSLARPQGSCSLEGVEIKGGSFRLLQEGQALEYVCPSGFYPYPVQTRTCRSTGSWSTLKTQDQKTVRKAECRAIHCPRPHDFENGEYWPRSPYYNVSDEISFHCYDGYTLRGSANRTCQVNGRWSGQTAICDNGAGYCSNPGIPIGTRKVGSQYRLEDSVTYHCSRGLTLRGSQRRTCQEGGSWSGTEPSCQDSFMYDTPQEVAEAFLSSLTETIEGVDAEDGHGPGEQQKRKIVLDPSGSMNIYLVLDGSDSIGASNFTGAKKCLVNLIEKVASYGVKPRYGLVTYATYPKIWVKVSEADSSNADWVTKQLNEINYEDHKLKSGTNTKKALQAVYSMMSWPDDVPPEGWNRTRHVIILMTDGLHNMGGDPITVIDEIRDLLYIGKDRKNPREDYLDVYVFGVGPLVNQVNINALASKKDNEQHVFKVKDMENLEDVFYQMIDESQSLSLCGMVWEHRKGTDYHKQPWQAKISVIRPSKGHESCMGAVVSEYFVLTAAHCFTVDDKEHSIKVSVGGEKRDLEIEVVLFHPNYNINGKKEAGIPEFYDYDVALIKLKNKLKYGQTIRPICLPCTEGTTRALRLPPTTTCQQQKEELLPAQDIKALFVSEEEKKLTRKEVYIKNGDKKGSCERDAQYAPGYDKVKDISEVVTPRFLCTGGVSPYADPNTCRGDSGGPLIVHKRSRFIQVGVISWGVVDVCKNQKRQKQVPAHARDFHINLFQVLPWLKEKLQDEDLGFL
Sequence of recombinant human tissue plasminogen activator (P00750 36-562): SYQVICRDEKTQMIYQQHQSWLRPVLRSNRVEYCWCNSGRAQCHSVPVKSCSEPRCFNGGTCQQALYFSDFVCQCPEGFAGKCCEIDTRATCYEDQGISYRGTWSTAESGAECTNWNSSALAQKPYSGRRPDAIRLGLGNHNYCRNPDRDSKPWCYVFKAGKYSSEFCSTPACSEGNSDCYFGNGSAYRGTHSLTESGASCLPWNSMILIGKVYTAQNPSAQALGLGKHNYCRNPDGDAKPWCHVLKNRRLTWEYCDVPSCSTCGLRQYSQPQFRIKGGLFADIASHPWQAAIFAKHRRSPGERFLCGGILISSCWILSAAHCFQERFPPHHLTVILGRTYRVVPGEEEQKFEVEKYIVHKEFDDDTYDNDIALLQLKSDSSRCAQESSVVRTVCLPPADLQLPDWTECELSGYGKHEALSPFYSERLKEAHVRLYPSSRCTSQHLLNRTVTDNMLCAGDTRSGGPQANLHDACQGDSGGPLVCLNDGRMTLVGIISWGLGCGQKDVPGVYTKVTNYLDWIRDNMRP
T5 sequence (P00742 235-488 limits assumed): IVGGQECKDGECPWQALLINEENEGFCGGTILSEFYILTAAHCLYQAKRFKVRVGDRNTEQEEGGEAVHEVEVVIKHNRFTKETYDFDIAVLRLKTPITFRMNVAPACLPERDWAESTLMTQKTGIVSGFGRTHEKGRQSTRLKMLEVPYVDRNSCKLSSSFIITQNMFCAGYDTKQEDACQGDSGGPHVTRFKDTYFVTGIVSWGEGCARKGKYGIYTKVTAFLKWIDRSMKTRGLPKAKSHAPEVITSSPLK
T5 sequence (P00742 41-179 partner limits assumed): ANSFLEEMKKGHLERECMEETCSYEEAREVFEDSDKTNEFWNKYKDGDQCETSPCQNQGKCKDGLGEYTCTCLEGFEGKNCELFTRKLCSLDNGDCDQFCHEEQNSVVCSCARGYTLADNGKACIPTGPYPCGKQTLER
T6 sequence (P27435 29-273): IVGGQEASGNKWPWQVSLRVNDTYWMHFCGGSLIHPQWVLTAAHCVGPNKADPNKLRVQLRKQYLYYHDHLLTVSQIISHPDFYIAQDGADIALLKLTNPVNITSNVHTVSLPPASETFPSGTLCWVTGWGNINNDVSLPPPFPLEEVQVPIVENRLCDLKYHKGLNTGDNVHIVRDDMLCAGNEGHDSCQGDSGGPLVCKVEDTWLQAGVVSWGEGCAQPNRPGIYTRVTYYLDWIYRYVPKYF

In the case of `N=C(N)c1ccc(CS(=O)(=O)F)cc1` [APMSF, 4-amidinophenylmethane sulfonyl fluoride, reference compound], the “kobs/[I]” value (complement protein D) was 110 M⁻¹ s⁻¹, the “kobs/[I]” value [1] was 230 M⁻¹ s⁻¹ and the “inhibition of C2 (in words)” value (complement protein C2) was “do not show any inhibition”. The “inhibition of protein B (in words)” value (complement protein B) was “do not show any inhibition”.

With `N=C(N)SCCOc1oc(=O)c2cc(NC(=O)[C@H](N)Cc3ccccc3)ccc2c1Cl` [D-Phe--NH-CiTEtOIC, 7-(D-phenylalanylamino)-4-chloro-3-(2-isothiureidoethoxy)isocoumarin] the kinact/KI (human factor XIIa) was 82000 M⁻¹ s⁻¹, the kinact/KI (bovine thrombin) was 4240 M⁻¹ s⁻¹ and the kinact/KI (human thrombin) was 3070 M⁻¹ s⁻¹. For the same molecule, the “kobs/[I]” value (human skin tryptase) was 62,000 M^-1 s^-1, the kinact/KI (human factor Xa) was 3070 M⁻¹ s⁻¹ and the “kobs/[I]” value (human lung tryptase) was 60,000 M^-1 s^-1. For the same molecule, the kinact/KI [2] was 15000 M⁻¹ s⁻¹ and the kinact/KI (rat skin tryptase) was 360000 M⁻¹ s⁻¹.
